# In publication PMC9897788, “Design, synthesis and cytotoxic evaluation of novel bis-thiazole derivatives as preferential Pim1 kinase inhibitors with in vivo and in silico study” (Journal of Enzyme Inhibition and Medicinal Chemistry, 2023):
# Assays:
# ACHN = test: NCI 60 cell one-dose screening (SRB); assay type: cell-based; settings: Homo sapiens, Renal Cancer, single dose 10 µM, 48 h, read-out: Percentage of cellular growth inhibition
# Summary of the method: (§1)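 Treatment: 10 µM, 48 h. Medium: RPMI 1640, 5% FBS, 2 mM L-glutamine. Read-out: SRB absorbance at 515 nm after TCA fixation; inhibition = 100 − growth % against no-drug control, with a time-zero baseline.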
# K-562 = test: NCI 60 cell one-dose screening (SRB); assay type: cell-based; settings: Homo sapiens, K562; K-562, Leukemia; single dose 10 µM, 48 h; read-out: Percentage of cellular growth inhibition
# Summary of the method: as §1
# LOX IMVI = test: NCI 60 cell one-dose screening (SRB); assay type: cell-based; settings: Homo sapiens, Melanoma, single dose 10 µM, 48 h, read-out: Percentage of cellular growth inhibition
# Summary of the method: as §1
# MDA-MB-435 = test: NCI 60 cell one-dose screening (SRB); assay type: cell-based; settings: Homo sapiens; MDA-MB-435, Melanoma; single dose 10 µM, 48 h; read-out: Percentage of cellular growth inhibition
# Summary of the method: as §1
# MDA-MB-468 = test: NCI 60 cell one-dose screening (SRB); assay type: cell-based; settings: Homo sapiens; MDA-MB-468, Breast Cancer; single dose 10 µM, 48 h; read-out: Percentage of cellular growth inhibition
# Summary of the method: as §1
# NCI/ADR-RES = test: NCI 60 cell one-dose screening (SRB); assay type: cell-based; settings: Homo sapiens, Ovarian Cancer, single dose 10 µM, 48 h, read-out: Percentage of cellular growth inhibition
# Summary of the method: as §1
# OVCAR-3 = test: NCI 60 cell one-dose screening (SRB); assay type: cell-based; settings: Homo sapiens; OVCAR-3, Ovarian Cancer; single dose 10 µM, 48 h; read-out: Percentage of cellular growth inhibition
# Summary of the method: as §1
# OVCAR-8 = test: NCI 60 cell one-dose screening (SRB); assay type: cell-based; settings: Homo sapiens; OVCAR-8, Ovarian Cancer; single dose 10 µM, 48 h; read-out: Percentage of cellular growth inhibition
# Summary of the method: as §1
# PC-3 = test: NCI 60 cell one-dose screening (SRB); assay type: cell-based; settings: Homo sapiens; PC-3, Prostate Cancer; single dose 10 µM, 48 h; read-out: Percentage of cellular growth inhibition
# Summary of the method: as §1
# RXF 393 = test: NCI 60 cell one-dose screening (SRB); assay type: cell-based; settings: Homo sapiens; RXF 393, Renal Cancer; single dose 10 µM, 48 h; read-out: Percentage of cellular growth inhibition
# Summary of the method: as §1
# SF-268 = test: NCI 60 cell one-dose screening (SRB); assay type: cell-based; settings: Homo sapiens; SF-268, CNS Cancer; single dose 10 µM, 48 h; read-out: Percentage of cellular growth inhibition
# Summary of the method: as §1
# SK-MEL-2 = test: NCI 60 cell one-dose screening (SRB); assay type: cell-based; settings: Homo sapiens; SK-MEL-2, Melanoma; single dose 10 µM, 48 h; read-out: Percentage of cellular growth inhibition
# Summary of the method: as §1
# SK-OV-3 = test: NCI 60 cell one-dose screening (SRB); assay type: cell-based; settings: Homo sapiens; SK-OV-3, Ovarian Cancer; single dose 10 µM, 48 h; read-out: Percentage of cellular growth inhibition
# Summary of the method: as §1
# SR = test: NCI 60 cell one-dose screening (SRB); assay type: cell-based; settings: Homo sapiens, Leukemia, single dose 10 µM, 48 h, read-out: Percentage of cellular growth inhibition
# Summary of the method: as §1
# UACC-62 = test: NCI 60 cell one-dose screening (SRB); assay type: cell-based; settings: Homo sapiens; UACC-62, Melanoma; single dose 10 µM, 48 h; read-out: Percentage of cellular growth inhibition
# Summary of the method: as §1
# UO-31 = test: NCI 60 cell one-dose screening (SRB); assay type: cell-based; settings: Homo sapiens; UO-31, Renal Cancer; single dose 10 µM, 48 h; read-out: Percentage of cellular growth inhibition
# Summary of the method: as §1
# [1] = system: Breast T47D cancer cell line; test: In vitro inhibition concentration of breast T47D cancer cell line; assay type: cell-based; settings: Homo sapiens
# Description: Cells were seeded and treated with a range of inhibitors concentration 39–10,000 nM after 24 h relative to DMSO. […]
# NCI-H23 = test: NCI 60 cell one-dose screening (SRB); assay type: cell-based; settings: Homo sapiens; NCI-H23, Non-Small Cell Lung Cancer; single dose 10 µM, 48 h; read-out: Percentage of cellular growth inhibition
# Summary of the method: as §1
# T-47D = test: NCI 60 cell one-dose screening (SRB); assay type: cell-based; settings: Homo sapiens, T47D, 48 h, Breast Cancer, single dose 10 µM, read-out: Percentage of cellular growth inhibition
# Summary of the method: as §1
SMILES,inhibition at 10 µM (ACHN),inhibition at 10 µM (K-562),inhibition at 10 µM (LOX IMVI),inhibition at 10 µM (MDA-MB-435),inhibition at 10 µM (MDA-MB-468),inhibition at 10 µM (NCI/ADR-RES),inhibition at 10 µM (OVCAR-3),inhibition at 10 µM (OVCAR-8),inhibition at 10 µM (PC-3),inhibition at 10 µM (RXF 393),inhibition at 10 µM (SF-268),inhibition at 10 µM (SK-MEL-2),inhibition at 10 µM (SK-OV-3),inhibition at 10 µM (SR),inhibition at 10 µM (UACC-62),inhibition at 10 µM (UO-31),IC50 ([1]; 48 h),IC50 ([1]; 96 h),melting point,inhibition at 10 µM (T-47D),other results
"Fc1ccc(-c2csc(Nc3cccc(Nc4nc(-c5ccc(F)cc5)cs4)c3)n2)cc1 [6b, N^1,N^3-bis(4–(4-fluorophenyl)thiazol-2-yl)benzene-1,3-diamine]",48.2%,64%,60.7%,36.9%,61.4%,36.3%,42.5%,32.1%,64.8%,24.5%,42.1%,65.3%,13.2%,48.6%,42.9%,68.7%,5.92 µM,1.61 µM,80 to 83 °C,–,–
"Cc1nc(Nc2cccc(Nc3nc(C)c(N=Nc4ccccc4)s3)c2)sc1N=Nc1ccccc1 [5a, N^1,N^3-bis(4-methyl-5-(phenyldiazenyl)thiazol-2-yl)benzene-1,3-diamine]",38.3%,32.9%,–,7.9%,29.4%,10.2%,26%,33.4%,-3.3%,-4.4%,42.4%,-6.7%,-6.6%,–,30.9%,69.7%,10.4 µM,4.35 µM,115 to 116 °C,48%,inhibition at 10 µM (NCI-H23): 14.7%
"NC(=S)Nc1cccc(NC(N)=S)c1 [compound 2, 1,1′-(1,3-phenylene)bis(thiourea)]",3.7%,90.7%,–,2.7%,13.5%,2.4%,11.5%,6%,-2.4%,-3.8%,9.1%,-11.7%,-25.8%,–,29.5%,30%,–,–,–,13.2%,inhibition at 10 µM (NCI-H23): 1.5%
"Clc1ccc(-c2cs/c(=N\c3ccccc3)n2-c2cccc(-n3c(-c4ccc(Cl)cc4)cs/c3=N\c3ccccc3)c2)cc1 [8c, N,N’-(3,3’-(1,3-phenylene)bis(4–(4-chlorophenyl)thiazole-3(3H)-yl-2(3H)-ylidene))dianiline]",-1.5%,11.7%,50.6%,5.4%,35.4%,0.5%,-6.6%,7.9%,28.9%,8.4%,12.1%,-9.6%,-29.4%,12.1%,10.5%,17.8%,–,–,120 to 121 °C,8.9%,–
"Fc1ccc(-c2cs/c(=N\c3ccccc3)n2-c2cccc(-n3c(-c4ccc(F)cc4)cs/c3=N\c3ccccc3)c2)cc1 [8b, N,N’-(3,3’-(1,3-phenylene)bis(4–(4-fluorophenyl)thiazole-3(3H)-yl-2(3H)-ylidene))dianiline]",2.3%,28.8%,23.9%,13.1%,51.2%,10.2%,4.1%,12.4%,32.1%,11.6%,8.7%,22.2%,-15.4%,36.1%,41%,26.3%,9.8 µM,2.61 µM,–,51%,–
"c1ccc(/N=c2\scc(-c3ccccc3)n2-c2cccc(-n3c(-c4ccccc4)cs/c3=N\c3ccccc3)c2)cc1 [8a, N,N’-(3,3’-(1,3-phenylene)bis(4-phenylthiazole-3(3H)-yl-2(3H)-ylidene))dianiline]",3%,7.8%,22.6%,1%,9%,-5%,-3.6%,-1.5%,21.8%,10.3%,0.3%,12.6%,-34.8%,6.1%,20.3%,25.4%,–,–,110 to 111 °C,10.2%,–
"S=C(Nc1ccccc1)Nc1cccc(NC(=S)Nc2ccccc2)c1 [compound 7, 1,1′-(1,3-phenylene)bis(3-phenylthiourea)]",-3.8%,9.7%,–,-2.8%,-8.4%,-9.3%,-6.1%,4%,-24%,-16.6%,3.3%,-35.3%,-29%,–,5.8%,14.6%,–,–,–,6.3%,inhibition at 10 µM (NCI-H23): -5.7%
"c1ccc(-c2csc(Nc3cccc(Nc4nc(-c5ccccc5)cs4)c3)n2)cc1 [6a, N^1,N^3-bis(4-phenylthiazol-2-yl)benzene-1,3-diamine]",63.8%,73.4%,–,55.3%,60.8%,73.9%,46.8%,60.1%,67.9%,36.2%,59.4%,35.1%,2.5%,–,49.7%,67.7%,6.58 µM,1.78 µM,92 to 94 °C,–,inhibition at 10 µM (NCI-H23): 63.2%
